Results from PubChem BioAssay AID1259411 (Chemical Carcinogenesis Research Information System (CCRIS), 2018).
Activity calls are given as the source filed them. The rule behind the calls is not given here.

System: rodent carcinogenicity bioassays, tumor incidence
Test: CCRIS carcinogenicity studies
How it was run: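 NCI-built, expert-reviewed records of carcinogenicity and related test outcomes (mutagenicity, tumor promotion/inhibition) compiled from published and report sources, historical span 1985-2011, not updated.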

c1ccc2c3c4c(cccc4cc2c1)CC3 was tested, and the carcinogen call (Species: MOUSE, Strain/Sex: BLU:HA/FEMALE, Route: INTRAPERITONEAL, Dose: 0, 175 UG/KG/D ON DAYS 1 (1/7 TOTAL DOSE), 8 (2/7 TOTAL DOSE), AND 15 (4/7 TOTAL DOSE) AFTER BIRTH (STUDY DURATION: 9 MO) was “inactive; negative”, the carcinogen call (Species: MOUSE, Strain/Sex: BLU:HA/MALE, Route: INTRAPERITONEAL, Dose: 0, 175 UG/KG/D ON DAYS 1 (1/7 TOTAL DOSE), 8 (2/7 TOTAL DOSE), AND 15 (4/7 TOTAL DOSE) AFTER BIRTH (STUDY DURATION: 9 MO) was “inactive; negative” and the carcinogen call (Species: MOUSE, Strain/Sex: CD-1/FEMALE, Route: INTRAPERITONEAL, Dose: 0, 175, 437.5, 875 UG/KG/D ON DAYS 1 (1/7 TOTAL DOSE), 8 (2/7 TOTAL DOSE), AND 15 (4/7 TOTAL DOSE) AFTER BIRTH (STUDY DU, Dose: 0, 175, 437.5, 875 UG/KG/D ON DAYS 1 (1/7 TOTAL DOSE), 8 (2/7 TOTAL DOSE), AND 15 (4/7 TOTAL DOSE) AFTER BIRTH (STUDY DU) was “inactive; negative”. For the same compound, the carcinogen call (Species: MOUSE, Strain/Sex: CD-1/MALE, Route: INTRAPERITONEAL, Dose: 0, 175, 437.5, 875 UG/KG/D ON DAYS 1 (1/7 TOTAL DOSE), 8 (2/7 TOTAL DOSE), AND 15 (4/7 TOTAL DOSE) AFTER BIRTH (STUDY DU, Dose: 0, 175, 437.5, 875 UG/KG/D ON DAYS 1 (1/7 TOTAL DOSE), 8 (2/7 TOTAL DOSE), AND 15 (4/7 TOTAL DOSE) AFTER BIRTH (STUDY DU, Tumor Site: Type of Lesion: LUNG: ADENOMA OR ADENOCARCINOMA) was “active; positive”.

With CC1CN(N=O)CC(C)O1 (centres undefined) the carcinogen call (Species: FISH, Strain/Sex: SHASTA RAINBOW TROUT/MALE, FEMALE, Route: ORAL, Dose: 0, 1556 PPM IN DIET FOR 18 MO (STUDY DURATION: 18 MO), Tumor Site: Type of Lesion: LIVER: CARCINOMA, STOMACH: PAPILLOMA) was “active; positive”, the carcinogen call (Species: HAMSTER, Strain/Sex: EUROPEAN/FEMALE, Route: GAVAGE, Dose: 0, 37 MG/KG 1/WK FOR DURATION OF STUDY (STUDY DURATION: LIFETIME), Tumor Site: Type of Lesion: NASAL CAVITY: TUMOR, TRACHEA: TUMOR, LIVER: HEMANGIOENDOTHELIOMA, Tumor Site: Type of Lesion: NASAL CAVITY: TUMOR, TRACHEA: TUMOR, LIVER: HEMANGIOENDOTHELIOMA) was “active; positive” and the carcinogen call (Species: HAMSTER, Strain/Sex: EUROPEAN/FEMALE, Route: GAVAGE, Dose: 0, 112 MG/KG 1/WK FOR DURATION OF STUDY (STUDY DURATION: LIFETIME), Tumor Site: Type of Lesion: NASAL CAVITY: TUMOR, TRACHEA: TUMOR, LUNG: TUMOR, Tumor Site: Type of Lesion: NASAL CAVITY: TUMOR, TRACHEA: TUMOR, LUNG: TUMOR) was “active; positive”. For the same compound, the carcinogen call (Species: HAMSTER, Strain/Sex: EUROPEAN/FEMALE, Route: SUBCUTANEOUS, Dose: 0, 85 MG/KG 1/WK FOR DURATION OF STUDY (STUDY DURATION: LIFETIME), Tumor Site: Type of Lesion: NASAL CAVITY: TUMOR, LARYNX: TUMOR, TRACHEA: TUMOR, LUNG: TUMOR, Tumor Site: Type of Lesion: NASAL CAVITY: TUMOR, LARYNX: TUMOR, TRACHEA: TUMOR, LUNG: TUMOR) was “active; positive”, the carcinogen call (Species: HAMSTER, Strain/Sex: EUROPEAN/MALE, Route: GAVAGE, Dose: 0, 37 MG/KG 1/WK FOR DURATION OF STUDY (STUDY DURATION: LIFETIME), Tumor Site: Type of Lesion: NASAL CAVITY: TUMOR, LIVER: HEMANGIOENDOTHELIOMA) was “active; positive” and the carcinogen call (Species: HAMSTER, Strain/Sex: EUROPEAN/MALE, Route: GAVAGE, Dose: 0, 112 MG/KG 1/WK FOR DURATION OF STUDY (STUDY DURATION: LIFETIME), Tumor Site: Type of Lesion: NASAL CAVITY: TUMOR, LUNG: TUMOR) was “active; positive”. The carcinogen call (Species: HAMSTER, Strain/Sex: EUROPEAN/MALE, Route: SUBCUTANEOUS, Dose: 0, 85 MG/KG 1/WK FOR DURATION OF STUDY (STUDY DURATION: LIFETIME), Tumor Site: Type of Lesion: NASAL CAVITY: TUMOR, LARYNX: TUMOR, TRACHEA: TUMOR, LUNG: TUMOR, Tumor Site: Type of Lesion: NASAL CAVITY: TUMOR, LARYNX: TUMOR, TRACHEA: TUMOR, LUNG: TUMOR) was “active; positive”, the carcinogen call (Species: HAMSTER, Strain/Sex: SYRIAN/MALE,FEMALE, Route: GAVAGE, Dose: 9-74 MG/KG 1/WK FOR LIFE, Tumor Site: Type of Lesion: PANCREAS, TRACHEA, LUNG, LIVER, NASAL CAVITY, FORESTOMACH, GALL BLADDER, LARYNX, Tumor Site: Type of Lesion: PANCREAS, TRACHEA, LUNG, LIVER, NASAL CAVITY, FORESTOMACH, GALL BLADDER, LARYNX) was “active; positive” and the carcinogen call (Species: HAMSTER, Strain/Sex: SYRIAN/MALE,FEMALE, Route: SUBCUTANEOUS, Dose: 8, 16, 32 MG/KG 1/WK FOR LIFE, Dose: 8, 16, 32 MG/KG 1/WK FOR LIFE, Tumor Site: Type of Lesion: NASAL CAVITY, LARYNX, TRACHEA, LUNG, FORESTOMACH, PANCREAS, VAGINA, Tumor Site: Type of Lesion: NASAL CAVITY, LARYNX, TRACHEA, LUNG, FORESTOMACH, PANCREAS, VAGINA) was “active; positive”. The carcinogen call (Species: RAT, Strain/Sex: F344/FEMALE, Route: INTRAVESICULAR, Dose: 0, 6 MG IN 0.2 ML ETHANOL: DEIONIZED WATER (1:3) 2/WK FOR 18 WK (TOTAL DOSE 1.5 MMOL) (STUDY DURATION: LIFESPAN), Tumor Site: Type of Lesion: ESOPHAGUS: TUMOR) was “active; positive”, the carcinogen call (Species: RAT, Strain/Sex: F344/FEMALE, Route: ORAL, Dose: 20 MG/L IN DRINKING WATER FOR 30 WK, Tumor Site: Type of Lesion: ESOPHAGUS: PAPILLOMA, CARCINOMA, TONGUE: PAPILLOMA, CARCINOMA) was “active; positive” and the carcinogen call (Species: RAT, Strain/Sex: F344/FEMALE, Route: ORAL, Dose: 50 MG/L IN DRINKING WATER FOR 22 WK, Tumor Site: Type of Lesion: ESOPHAGUS: PAPILLOMA, CARCINOMA) was “active; positive”. For the same compound, the carcinogen call (Species: RAT, Strain/Sex: SPRAGUE-DAWLEY/MALE,FEMALE, Route: SUBCUTANEOUS, Dose: 0, 1/100, 1/10 OF LD50 1/WK FOR LIFE (STUDY DURATION: LIFETIME), Dose: 0, 1/100, 1/10 OF LD50 1/WK FOR LIFE (STUDY DURATION: LIFETIME), Tumor Site: Type of Lesion: ESOPHAGUS: CARCINOMA) was “active; positive”, the carcinogen call (Species: RAT, Strain/Sex: SPRAGUE-DAWLEY/MALE,FEMALE, Route: SUBCUTANEOUS, Dose: 0, 1/100, 1/10 OF LD50 1/WK FOR LIFE TO RATS WITH ESOPHAGOJEJUNOSTOMY (STUDY DURATION: LIFETIME), Dose: 0, 1/100, 1/10 OF LD50 1/WK FOR LIFE TO RATS WITH ESOPHAGOJEJUNOSTOMY (STUDY DURATION: LIFETIME), Tumor Site: Type of Lesion: ESOPHAGUS: CARCINOMA) was “active; positive” and the carcinogen call (Species: RAT, Strain/Sex: SPRAGUE-DAWLEY/MALE, Route: ORAL, Dose: 50 MG/L IN DRINKING WATER (20 ML/D 5 D/WK) FOR 30 WK, Tumor Site: Type of Lesion: ESOPHAGUS: PAPILLOMA, SQUAMOUS CELL CARCINOMA, NASAL TURBINATES: ADENOCARCINOMA) was “active; positive”.
